Measured values taken from paper PMC11858513, “Antibiofilm Activities of Tritrpticin Analogs Against Pathogenic Pseudomonas aeruginosa PA01 Strains” (Molecules, 2025).
Converted amounts (≈) assume the structure as drawn. Where two headings read alike, the source gives them in different places. Residues, ends and D or L forms follow the SMILES beside them.

Experiments:
P. aeruginosa PAO1 GFP [1] = assay: MIC against planktonic cells, absorbance at 600 nm; type: cell-based, Pseudomonas aeruginosa; details: Table 2, BM2 medium, absorbance 600 nm, mean of three biological replicates
Method: (§1) Figure 1 The MIC (A), MBIC (B) and MBEC (C) values for the tritrpticin analog peptides were assessed against Pa PAO1 GFP. The MIC values were determined by measuring the absorbance of bacterial cells at 600 nm. The MBIC and MBEC values were determined by recording the fluorescence at 480 nm and 530 nm from the biofilms of GFP-expressing PAO1. Three biological replicates were run for each test sample, and the mean was calculated for the recorded absorption or fluorescence values. In the graphs, the error bars represent the standard deviation (±SD).
(§2) Figure 2 The MIC (A), MBIC (B) and MBEC (C) values for the tritrpticin-Lys derivative peptides were assessed against Pa PAO1 GFP. The MIC values were determined by measuring the absorbance of bacterial cells at 600 nm. The MBIC and MBEC values were determined by recording the fluorescence at 480 nm and 530 nm from the biofilms of GFP-expressing PAO1. Three replicates were run for each sample, the values were averaged and the error bars represent the standard deviation (±SD).
(§3) The methods to determine the MIC, MBIC and MBEC have been described in detail in our previous publication. The green fluorescent protein (GFP)-producing P. aeruginosa and S. aureus strains that were used in this work were also described in the earlier publication. Fluorescence detection was used as the main method to estimate the number of cells entrapped in the biofilm matrix. The methodology used for evaluation of the antibiofilm properties against an original Pseudomonas PA01 strain by crystal violet dye staining and the use of the Calgary biofilm device has been described elsewhere. The regular PA01 strain was provided by Dr. J. Harrison, Calgary. All measurements were carried out on an Eppendorf AF2200 plate reader. Every 96-well plate included controls for bacterial cell growth without peptide treatment and media alone. All measurements were carried out in triplicate, and the values in the figures represent the average and the error bars are standard deviation.

P. aeruginosa PAO1 GFP [2] = assay: MBIC, prevention of biofilm formation, GFP fluorescence method; type: cell-based, Pseudomonas aeruginosa; details: Table 2, BM2 medium, mean of three biological replicates
Method: as §1, §2, §3

P. aeruginosa PAO1 GFP [3] = assay: MBEC, biofilm eradication, GFP fluorescence method; type: cell-based, Pseudomonas aeruginosa; details: Table 2, BM2 medium, mean of three biological replicates
Method: as §1, §2, §3

S. aureus GFP [4] = assay: MIC against planktonic cells, absorbance at 600 nm; type: cell-based, Staphylococcus aureus; details: Table 4; Sa GFP, 10% TSB and 0.1% glucose; absorbance 600 nm; mean of three biological replicates
Method: as §1, with “3” for “1”, “Sa” for “Pa PAO1”, “Sa.” for “PAO1.”
as §3

S. aureus GFP [5] = assay: MBIC, GFP fluorescence method; type: cell-based, Staphylococcus aureus; details: Table 4, Sa GFP, 10% TSB and 0.1% glucose, mean of three biological replicates
Method: as §1, with “3” for “1”, “Sa” for “Pa PAO1”, “Sa.” for “PAO1.”
as §3

S. aureus GFP [6] = assay: MBEC, GFP fluorescence method; type: cell-based, Staphylococcus aureus; details: Table 4, Sa GFP, 10% TSB and 0.1% glucose, mean of three biological replicates
Method: as §1, with “3” for “1”, “Sa” for “Pa PAO1”, “Sa.” for “PAO1.”
as §3

S. aureus GFP [7] = type: cell-based, Staphylococcus aureus; details: Table 4; Sa GFP; lowest concentration of peptide with no bacterial growth seen on the spot agar plate
Source text: as §3

P. aeruginosa PAO1 [8] = type: cell-based, Pseudomonas aeruginosa; details: Table 5; regular PAO1 (no GFP), 1x BM2; absorbance 600 nm; mean of three biological replicates
Method: (§4) Figure 4 The MIC (A), MBIC (B) and MBRC (C) values for the peptides were assessed against P. aeruginosa PAO1 in the presence of 1× BM2. The inhibition of planktonic cells, the inhibition of biofilm cells and the reduction in biofilm cells were determined for the peptides by recording of the planktonic cells at 600 nm and quantification of biofilms formed by Pa PAO1 using crystal violet at 595 nm, respectively. Three biological replicates were run for each test sample, and the mean was calculated for the recorded absorption values. Data points with error bars indicate the standard deviation (±SD).
(§5) Figure 6 The MIC (A), MBIC (B) and MBEC (C) values for the tritrpticin-Lys derivatives against P. aeruginosa PAO1 were assessed by the crystal violet (CV) assay for the measurement of inhibition of biofilm formation and eradication of biofilm cells, respectively. The biofilm cells were rinsed, stained with 0.1% crystal violet for 15 min and then rinsed again. The CV was released from biofilm cells by the addition of 95% ethanol and quantified by reading on a spectrometer at 595 nm. Three replicates were run for each sample, the values were averaged and the error bars represent the standard deviation (±SD).
as §3

P. aeruginosa PAO1 [9] = type: cell-based
Method: (§6) We note the close agreement with the MBIC and MBEC values determined by the fluorescence and CV methods, similar to what we found in our previous work for an S. aureus MRSA strain [23]. We also re-evaluated the MBEC values that are measured using the Calgary biofilm device (CBD), where biofilms form on pegs, rather than at the bottom of the 96-well plates. […] In particular, we find that the single Pro9Ala Tritrp-P9A-substituted version has better MIC, MBIC and MBEC activities than the parent peptide as well as the Tritrp-P59A analog with both prolines substituted to Ala.
as §4, §5, §3

P. aeruginosa PAO1 [10] = type: cell-based, Pseudomonas aeruginosa; details: Table 5; PAO1, 1x BM2; biofilms on pegs, cells plated and counted; three biological replicates
Method: as §6
Figure 5 The MBEC values for the peptides were assessed against P. aeruginosa PAO1 in the presence of 1× BM2 medium. The eradication of biofilm cells was determined for the peptides using the counting of biofilm cells formed by Pa PAO1. Three biological replicates were run for each test sample, and the mean was calculated for counted cell values. Data points with error bars indicate the standard deviation (±SD).
as §3

[11] = Table 5, PAO1, 1x BM2, crystal violet at 595 nm, mean of three biological replicates
[12] = Table 5, minimum biofilm reduction concentration, PAO1, 1x BM2, crystal violet at 595 nm, mean of three biological replicates

| Compound | MIC at 600 nm LD50 (P. aeruginosa PAO1 GFP [1]) [µM] | MIC at 600 nm LD90 (P. aeruginosa PAO1 GFP [1]) [µM] | MBIC at 488 and 530 nm LD50 (P. aeruginosa PAO1 GFP [2]) [µmol/L] | MBIC at 488 and 530 nm LD90 (P. aeruginosa PAO1 GFP [2]) [µmol/L] | MBEC at 488 and 530 nm LD50 (P. aeruginosa PAO1 GFP [3]) [µmol/L] | MBEC at 488 and 530 nm LD90 (P. aeruginosa PAO1 GFP [3]) [µmol/L] | MIC at 600 nm LD50 (S. aureus GFP [4]) [µM] | MIC at 600 nm LD90 (S. aureus GFP [4]) [µM] | MBIC at 488 and 530 nm LD50 (S. aureus GFP [5]) [µmol/L] | MBIC at 488 and 530 nm LD90 (S. aureus GFP [5]) [µmol/L] | MBEC at 488 and 530 nm LD50 (S. aureus GFP [6]) [µmol/L] | MBEC at 488 and 530 nm LD90 (S. aureus GFP [6]) [µmol/L] | MBC Agar Plate (S. aureus GFP [7]) [µM] | MIC at 600 nm LD50 (P. aeruginosa PAO1 [8]) [µM] | MIC at 600 nm LD90 (P. aeruginosa PAO1 [8]) [µM] | MBIC (CV at 595 nm) LD50 (P. aeruginosa PAO1 [9]; [11]) [µmol/L] | MBIC (CV at 595 nm) LD90 (P. aeruginosa PAO1 [9]; [11]) [µmol/L] | MBRC (CV at 595 nm) LD90 (P. aeruginosa PAO1 [9]; [12]) [µmol/L] | MBEC from Calgary Biofilm Device (CBD) LD50 (P. aeruginosa PAO1 [10]) [µmol/L] | MBEC from Calgary Biofilm Device (CBD) LD90 (P. aeruginosa PAO1 [10]) [µmol/L] | further results |
| --- | --- | --- | --- | --- | --- | --- | --- | --- | --- | --- | --- | --- | --- | --- | --- | --- | --- | --- | --- | --- | --- |
| CC(C)[C@H](NC(=O)[C@@H]1CCCN1C(=O)[C@@H](N)Cc1ccccc1)C(=O)N[C@H](C(=O)N[C@@H](Cc1c[nH]c2ccccc12)C(=O)N[C@@H](CCCNC(=N)N)C(=O)N[C@@H](Cc1c[nH]c2ccccc12)C(=O)N[C@@H](Cc1c[nH]c2ccccc12)C(=O)N[C@@H](CCCNC(=N)N)C(=O)N[C@@H](Cc1c[nH]c2ccccc12)C(=O)N[C@@H](Cc1c[nH]c2ccccc12)C(=O)N[C@@H](CCCNC(=N)N)C(=O)NCC(N)=O)[C@@H](C)O [PuroA-Arg, reference compound] (H-FPVTWRWWRWWRG-NH2) | 8 (≈ 15.3 µg/mL) | 16 (≈ 30.7 µg/mL) | 8 | 8 | 32 | 128 | 4 (≈ 7.67 µg/mL) | 4 (≈ 7.67 µg/mL) | 4 | 4 | 8 | 16 | 8 (≈ 15.3 µg/mL) | 8 (≈ 15.3 µg/mL) | 16 (≈ 30.7 µg/mL) | 16 | 16 | 32 | 16 | 64 | MBRC (CV at 595 nm) LD50 (P. aeruginosa PAO1 [9]; [12]): 32 µmol/L |
| CC(C)[C@H](NC(=O)[C@@H]1CCCN1C(=O)[C@@H](N)Cc1ccccc1)C(=O)N[C@H](C(=O)N[C@@H](Cc1c[nH]c2ccccc12)C(=O)N[C@@H](CCCCN)C(=O)N[C@@H](Cc1c[nH]c2ccccc12)C(=O)N[C@@H](Cc1c[nH]c2ccccc12)C(=O)N[C@@H](CCCCN)C(=O)N[C@@H](Cc1c[nH]c2ccccc12)C(=O)N[C@@H](Cc1c[nH]c2ccccc12)C(=O)N[C@@H](CCCCN)C(=O)NCC(N)=O)[C@@H](C)O [PuroA-Lys, reference compound] (H-FPVTWKWWKWWKG-NH2) | 4 (≈ 7.34 µg/mL) | 8 (≈ 14.7 µg/mL) | 4 | 8 | 64 | 64 | 2 (≈ 3.67 µg/mL) | 4 (≈ 7.34 µg/mL) | 2 | 4 | 8 | 8 | 8 (≈ 14.7 µg/mL) | 8 (≈ 14.7 µg/mL) | 16 (≈ 29.3 µg/mL) | 8 | 16 | 32 | 32 | 64 | MBRC (CV at 595 nm) LD50 (P. aeruginosa PAO1 [9]; [12]): 32 µmol/L |
| CC(C)C[C@H](NC(=O)[C@H](Cc1ccccc1)NC(=O)[C@@H]1CCCN1C(=O)[C@H](Cc1c[nH]c2ccccc12)NC(=O)[C@H](Cc1c[nH]c2ccccc12)NC(=O)[C@H](Cc1c[nH]c2ccccc12)NC(=O)[C@@H]1CCCN1C(=O)[C@H](Cc1ccccc1)NC(=O)[C@H](CCCNC(=N)N)NC(=O)[C@H](CCCNC(=N)N)NC(=O)[C@@H](N)C(C)C)C(=O)N[C@@H](CCCNC(=N)N)C(=O)N[C@@H](CCCNC(=N)N)C(N)=O [Tritrp-Arg] | 4 (≈ 7.61 µg/mL) | 8 (≈ 15.2 µg/mL) | 2 | 8 | 8 | 16 | 0.5 (≈ 0.951 µg/mL) | 2 (≈ 3.8 µg/mL) | 1 | 2 | 1 | 2 | 2 (≈ 3.8 µg/mL) | 4 (≈ 7.61 µg/mL) | 8 (≈ 15.2 µg/mL) | – | 8 | 32 | 16 | 32 | MBIC (CV at 595 nm) LD50 (P. aeruginosa PAO1 [9]; PAO1): 4 µmol/L; MBRC (CV at 595 nm) LD50 (P. aeruginosa PAO1 [9]; PAO1): 32 µmol/L |
| CC(C)C[C@H](NC(=O)[C@H](Cc1ccccc1)NC(=O)[C@@H]1CCCN1C(=O)[C@H](Cc1c[nH]c2ccccc12)NC(=O)[C@H](Cc1c[nH]c2ccccc12)NC(=O)[C@H](Cc1c[nH]c2ccccc12)NC(=O)[C@@H]1CCCN1C(=O)[C@H](Cc1ccccc1)NC(=O)[C@H](CCCCN)NC(=O)[C@H](CCCCN)NC(=O)[C@@H](N)C(C)C)C(=O)N[C@@H](CCCCN)C(=O)N[C@@H](CCCCN)C(N)=O [Tritrp-Lys] (H-VKKFPWWWPFLKK-NH2) | 32 (≈ 57.3 µg/mL) | 32 (≈ 57.3 µg/mL) | 16 | 32 | 64 | 64 | 1 (≈ 1.79 µg/mL) | 2 (≈ 3.58 µg/mL) | 2 | 2 | 1 | 2 | 4 (≈ 7.16 µg/mL) | 32 (≈ 57.3 µg/mL) | 32 (≈ 57.3 µg/mL) | 32 | 32 | 64 | 128 | 128 | MBRC (CV at 595 nm) LD50 (P. aeruginosa PAO1 [9]; PAO1): 64 µmol/L |
